The target of one data set is HIV-1 protease (Human immunodeficiency virus type 1 group M subtype B, UniProt P04585). The data set is described as follows: Fluorogenic Assay for Screening Inhibitors of HIV Protease. The note with it: pH 4.5.
The subject of another data set is HIVIIIB. The experiment in a line: Antiviral Activity: anti-HIV activity in MT4 cells infected with HIVIIIB (MTT). It counts as cell-based. To be noted: Human immunodeficiency virus 1, 120 h, MOI 0.003, 5 days, n=four duplicate determinations. The method, then:
(§1) The anti-HIV activity of the compound of the invention was determined in MF4 cells according to the following procedure: MT4 cells were infected with cell-free supernatant of HIVIIIB (previously frozen with known 50% tissue culture infectious dose (TCID50) at 0.003 multiplicity of infection (MOI)) for one hour. After one hour infection, cells were washed twice to remove residual viruses, resuspended in culture media and seeded into 96-well tissue culture plates at 1×10^4 cells per well with various half-log dilutions of compounds. Uninfected cells were included a toxicity and cell controls. RPMI 1640 media (GIBCO) with 10% fetal bovine serum was used as culture media. Various concentrations (50%, 25% and 12.5%) of human serum (SIGMA) were added to culture media resulting in final concentrations of 60%, 35% and 22.5% total serum. All assay plates were incubated in a 37° C. incubator for 5 days. The compound 3-[4,5-dimethylthiozol-2-yl]-2,5-diphenyltetrazolium bromide (MTT, SIGMA, 5 mg .mL stock in PBS) was then added to all wells at 25 μL per well and incubated for 4 hours. SDS (20%) with 0.02N HCl in water was added at 50 μL per well to lyse cells. Plates were incubated overnight for complete cell lysis and then read on a microtiter plate reader at 570/650 nm wavelengths to determine cell optical density (O.D.). Raw data was analysed for percent inhibition by the following formula: [formula]
The 50% effective concentration (EC50) was calculated by the median effect equation (Chou, 1975, Proc. Int. Cong. Pharmacol. 6th p. 619) to determine the efficacy of compound. The 50% cytotoxicity concentration (CTC50) was calculated using uninfected MT4 cells
Under these conditions, the data of Table 2 was obtained (n=four duplicate determinations).

A short description of data set [1]: Cytotoxicity in uninfected MT4 cells (MTT). Format: cell-based. To be noted: human, 5 days, n=four duplicate determinations, read-out: CTC50 (50% cytotoxicity concentration). As to the method:
as §1, with “RPMI 1640 media (GIBCO) with 10% fetal bovine serum was used as culture media. Various concentrations (50%, 25% and 12.5%) of human serum (SIGMA) were added to culture media resulting in final concentrations of 60%, 35% and 22.5% total serum.” left out, “The compound 3-[4,5-dimethylthiozol-2-yl]-2,5-diphenyltetrazolium bromide (MTT, SIGMA, 5 mg .mL stock in PBS) was then added to all wells at 25 μL per well and incubated for 4 hours.” left out
The 50% cytotoxicity concentration (CTC50) was calculated using uninfected MT4 cells

This is an account of results in patent publication US5905068A, “Retroviral protease inhibiting compounds” (Abbott Laboratories, priority 1996, dated 1999).

pEC50: −log10 of the molar value.

Method for HIV-1 protease: The inhibitory potency of the compounds of the invention were determined by the following method: The compound of the invention was dissolved in DMSO and a small aliquot further diluted with DMSO to 100 times the final concentration desired for testing. The reaction was carried out in a 6×50 mm tube in a total volume of 300 microliters. […] After addition of inhibitor, the reaction mixture was placed in the fluorometer cell holder and incubated at 30° C. for several minutes. The reaction was initiated by the addition of a small aliquot of cold HIV protease. The fluorescence intensity (excitation 340 nm, emission 490 nm) was recorded as a function of time. The reaction rate was determined for the first six to eight minutes. The observed rate was directly proportional to the moles of substrate cleaved per unit time. The percent inhibition was calculated according to the equation: 100×(1-(rate of inhibitor)/(rate in absence of inhibitor)). As a control, duplicate reactions were performed identically as above but without the addition of an inhibitor compound.

A word on the inhibition: it is the relative decrease from the control value, in per cent. Usually pEC50 stands for the negative decadic logarithm of the EC50, by convention in mol/L. Higher therefore signals a low EC50. At HIV-1 protease, `O=C(N[C@@H](Cc1ccccc1)[C@@H](O)C[C@H](Cc1ccccc1)NC(=O)O[C@@H]1CO[C@@H]2OCC[C@@H]21)OCc1cncs1` [Example 38, (2S,3S,5S)-2-((5-Thiazolyl)methoxycarbonyl)amino-5-((3S,3aR,6aS)-bis-tetrahydrofuran-3-yl-oxycarbonyl)amino-1,6-diphenyl-3-hydroxyhexane] gave an inhibition at 0.0005 µM of 53%. In the data set with HIVIIIB, this compound gave a pEC50 of 6.85. The CC50 at 120 h in data set [1] was more than 100000 nM.

As to `CC(C)c1nc(CN(C)C(=O)N[C@@H](C(=O)N[C@@H](Cc2ccccc2)C[C@H](O)[C@H](Cc2ccccc2)NC(=O)OC2COC3OCCC23)C(C)C)cs1` (stereo partly drawn) [Example 39, (2S,3S,5S)-5-(N-(N-((N-Methyl-N-((2-isopropyl-4-thiazolyl)methyl)amino)carbonyl)-D-valinyl)amino)-2-((3R,3aS,6aR), (3S,3aR,6aS)-bis-tetrahydrofuran-3-yl-oxycarbonyl)amino-1,6-diphenyl-3-hydroxyhexane], at HIV-1 protease, the inhibition at 0.0005 µM was determined as 66%. Also, the negative-log EC50 (pEC50) in the data set with HIVIIIB was 7.26. The CC50 at 120 h in data set [1] came to 56200 nM.

Compound `O=C(N[C@@H](Cc1ccccc1)C[C@H](O)[C@H](Cc1ccccc1)NC(=O)OC1COC2OCCC12)OCc1cncs1` (stereo partly drawn) [Example 40, (2S,3S,5S)-5-((5-Thiazolyl)methoxycarbonyl)amino-2-((3R,3aS,6aR), (3S,3aR,6aS)-bis-tetrahydrofuran-3-yl-oxycarbonyl)amino-1,6-diphenyl-3-hydroxyhexane] showed an inhibition at 0.0005 µM at HIV-1 protease of 43%. The pEC50 in the data set with HIVIIIB is 6.30. Moreover, in data set [1], the CC50 at 120 h was more than 100000 nM.

In the case of `O=C(N[C@@H](Cc1ccccc1)C[C@H](O)[C@H](Cc1ccccc1)NC(=O)OC1COC2OCCC12)OC1COC2OCCC12` (stereo partly drawn) [Example 41, (2S,3S,5S)-2,5-((3R,3aS,6aR)-bis-Tetrahydrofuran-3-yl-oxycarbonyl)amino-1,6-diphenyl-3-hydroxyhexane], the inhibition at 0.0005 µM against HIV-1 protease was 53%. In the data set on HIVIIIB, the negative logarithm of the EC50 (pEC50) was 7.37. For the same compound, the CC50 at 120 h in data set [1] is more than 100000 nM.

With `CC(C)[C@H](NC(=O)OCc1cncs1)C(=O)N[C@@H](Cc1ccccc1)C[C@H](O)[C@H](Cc1ccccc1)NC(=O)O[C@H]1CO[C@H]2OCC[C@H]21` [Example 42, (2S,3S,5S)-5-(N-(N-((5-Thiazolyl)methoxycarbonyl)-L-valinyl)amino)-2-((3R,3aS,6aR)-bis-tetrahydrofuran-3-yl-oxycarbonyl)amino-1,6-diphenyl-3-hydroxyhexane], on HIV-1 protease, the inhibition at 0.0005 µM was 80%. In the data set with HIVIIIB, this compound gave a pEC50 of 7.15. Besides, the CC50 at 120 h in data set [1] was more than 100000 nM.

On HIV-1 protease, `CC(C)[C@@H](NC(=O)OCc1cncs1)C(=O)N[C@@H](Cc1ccccc1)C[C@H](O)[C@H](Cc1ccccc1)NC(=O)O[C@H]1CO[C@H]2OCC[C@H]21` [Example 43, (2S,3S,5S)-5-(N-(N-((5-Thiazolyl)methoxycarbonyl)-D-valinyl)amino)-2-((3R,3aS,6aR)-bis-tetrahydrofuran-3-yl-oxycarbonyl)amino-1,6-diphenyl-3-hydroxyhexane] showed an inhibition at 0.0005 µM of 42%. Besides, the pEC50 in the data set on HIVIIIB was 6.57. Moreover, the CC50 at 120 h in data set [1] was more than 100000 nM.

The compound `CC(C)[C@@H](NC(=O)N(C)Cc1cncs1)C(=O)N[C@@H](Cc1ccccc1)C[C@H](O)[C@H](Cc1ccccc1)NC(=O)O[C@H]1CO[C@H]2OCC[C@H]21` [Example 44, (2S,3S,5S)-5-(N-(N-((N-Methyl-N-((5-thiazolyl)methyl)amino)carbonyl)-D-valinyl)amino)-2-((3R,3aS,6aR)-bis-tetrahydrofuran-3-yl-oxycarbonyl)amino-1,6-diphenyl-3-hydroxyhexane] registered an inhibition at 0.0005 µM against HIV-1 protease of 72%. The compound further gave a negative logarithm of the EC50 (pEC50) in the data set with HIVIIIB of 6.43. The CC50 at 120 h in data set [1] was more than 100000 nM.

On to `CC(C)[C@H](NC(=O)N(C)Cc1cncs1)C(=O)N[C@@H](Cc1ccccc1)C[C@H](O)[C@H](Cc1ccccc1)NC(=O)O[C@H]1CO[C@H]2OCC[C@H]21` [Example 45, (2S,3S,5S)-5-(N-(N-((N-Methyl-N-((5-thiazolyl)methyl)amino)carbonyl)-L-valinyl)amino)-2-((3R,3aS,6aR)-bis-tetrahydrofuran-3-yl-oxycarbonyl)amino-1,6-diphenyl-3-hydroxyhexane], for which the inhibition at 0.0005 µM on HIV-1 protease was found to be 56%. In the data set on HIVIIIB, this compound showed a pEC50 of 6.35. Besides, the CC50 at 120 h in data set [1] is more than 100000 nM.

As for `CC(C)c1nc(CN(C)C(=O)N[C@H](C(=O)N[C@@H](Cc2ccccc2)[C@@H](O)C[C@H](Cc2ccccc2)NC(=O)O[C@H]2CO[C@H]3OCC[C@H]32)C(C)C)cs1` [Example 46, (2S,3S,5S)-2-(N-(N-((N-Methyl-N-((2-isopropyl-4-thiazolyl)methyl)amino)carbonyl)-L-valinyl)amino)-5-((3R,3aS,6aR)-bis-tetrahydrofuran-3-yl-oxycarbonyl)amino-1,6-diphenyl-3-hydroxyhexane], at HIV-1 protease, the inhibition at 0.0005 µM was determined as 74%. This compound showed a negative-log EC50 (pEC50) in the data set on HIVIIIB of 7.47. Besides, in data set [1], the CC50 at 120 h is 56200 nM.

For `Cc1nc(CN(C)C(=O)N[C@H](C(=O)N[C@@H](Cc2ccccc2)C[C@H](O)[C@H](Cc2ccccc2)NC(=O)O[C@@H]2CO[C@@H]3OCC[C@@H]32)C(C)C)cs1` [Example 47, (2S,3S,5S)-5-(N-(N-((N-Methyl-N-((2-methyl-4-thiazolyl)methyl)amino)carbonyl)-L-valinyl)amino)-2-((3S,3aR,6aS)-bis-tetrahydrofuran-3-yl-oxycarbonyl)amino-1,6-diphenyl-3-hydroxyhexane], on HIV-1 protease, testing at 0.0005 µM gave an inhibition of 82%. Also, the pEC50 in the data set with HIVIIIB is 7.26. Besides, the CC50 at 120 h in data set [1] was more than 100000 nM.

The compound `CC(C)c1nc(CN(C)C(=O)N[C@H](C(=O)N[C@@H](Cc2ccccc2)C[C@H](O)[C@H](Cc2ccccc2)NC(=O)O[C@@H]2CO[C@@H]3OCC[C@@H]32)C(C)C)cs1` [Example 48, (2S,3S,5S)-5-(N-(N-((N-Methyl-N-((2-isopropyl-4-thiazolyl)methyl)amino)carbonyl)-L-valinyl)amino)-2-((3S,3aR,6aS)-bis-tetrahydrofuran-3-yl-oxycarbonyl)amino-1,6-diphenyl-3-hydroxyhexane] returned an inhibition at 0.0005 µM on HIV-1 protease of 80%. Besides, the pEC50 in the data set on HIVIIIB is 7.96. Also, the CC50 at 120 h in data set [1] worked out at 46600 nM.

Regarding `Cc1nc(CN(C)C(=O)N[C@H](C(=O)N[C@@H](Cc2ccccc2)C[C@H](O)[C@H](Cc2ccccc2)NC(=O)O[C@H]2CO[C@H]3OCC[C@H]32)C(C)C)cs1` [Example 49, (2S,3S,5S)-5-(N-(N-((N-Methyl-N-((2-methyl-4-thiazolyl)methyl)amino)carbonyl)-L-valinyl)amino)-2-((3R,3aS,6aR)-bis-tetrahydrofuran-3-yl-oxycarbonyl)amino-1,6-diphenyl-3-hydroxyhexane], the inhibition at 0.0005 µM at HIV-1 protease was 74%. The same compound gave a negative logarithm of the EC50 (pEC50) with HIVIIIB of 7.38. The CC50 at 120 h in data set [1] is more than 100000 nM.

At HIV-1 protease, `CC(C)c1nc(CN(C)C(=O)N[C@H](C(=O)N[C@@H](Cc2ccccc2)C[C@H](O)[C@H](Cc2ccccc2)NC(=O)O[C@H]2CCOC2)C(C)C)cs1` [Example 50, (2S,3S,5S)-5-(N-(N-((N-Methyl-N-((2-isopropyl-4-thiazolyl)methyl)amino)carbonyl)-L-valinyl)amino)-2-(3S-tetrahydrofuran-3-yl-oxycarbonyl)amino-1,6-diphenyl-3-hydroxyhexane] registered an inhibition at 0.0005 µM of 68%. In the data set with HIVIIIB, this compound gave a pEC50 of 7.49. Further, the CC50 at 120 h in data set [1] was determined as 56200 nM.
